In patent publication US20070202548A1, “SCREENING ASSAY TO IDENTIFY INHIBITORS OF THE MURD ENZYME USING AN ACTIVATOR-I[…] ENZYME” (priority 2002, published 2007):

What was measured:
[1] = molecular target: T1, E. faecalis MurD (Enterococcus faecalis, UniProt O07108, A218V/A300V/N165D/T307K); format: biochemical; details: FIG. 1 / FIG. 3
[2] = molecular target: E. coli enzyme (MurD) (Escherichia coli, UniProt P14900); details: FIG. 3
[3] = system: Staphylococcus aureus Mur D enzyme; test: salt activation of S. aureus MurD; format: biochemical; details: FIG. 2
[4] = molecular target: T1, E. faecalis MurD; test: stability of E. faecalis Mur D in DMSO; format: biochemical; details: DMSO concentration up to 5%, FIG. 4

T1 sequence (O07108 whole entry N165D/A218V/A300V/T307K): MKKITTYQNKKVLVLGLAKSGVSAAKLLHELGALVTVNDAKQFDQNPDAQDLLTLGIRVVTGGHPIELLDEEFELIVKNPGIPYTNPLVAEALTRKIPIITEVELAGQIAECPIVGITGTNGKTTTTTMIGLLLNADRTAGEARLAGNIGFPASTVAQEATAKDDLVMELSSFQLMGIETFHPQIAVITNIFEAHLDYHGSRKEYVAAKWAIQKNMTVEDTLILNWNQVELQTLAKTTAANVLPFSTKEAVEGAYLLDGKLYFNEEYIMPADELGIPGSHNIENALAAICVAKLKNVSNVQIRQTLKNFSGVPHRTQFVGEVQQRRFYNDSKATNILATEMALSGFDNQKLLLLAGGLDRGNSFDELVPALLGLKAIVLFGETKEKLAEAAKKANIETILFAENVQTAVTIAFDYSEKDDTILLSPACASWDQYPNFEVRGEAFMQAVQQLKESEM
Sequence of E. coli enzyme (MurD) (P14900 whole entry): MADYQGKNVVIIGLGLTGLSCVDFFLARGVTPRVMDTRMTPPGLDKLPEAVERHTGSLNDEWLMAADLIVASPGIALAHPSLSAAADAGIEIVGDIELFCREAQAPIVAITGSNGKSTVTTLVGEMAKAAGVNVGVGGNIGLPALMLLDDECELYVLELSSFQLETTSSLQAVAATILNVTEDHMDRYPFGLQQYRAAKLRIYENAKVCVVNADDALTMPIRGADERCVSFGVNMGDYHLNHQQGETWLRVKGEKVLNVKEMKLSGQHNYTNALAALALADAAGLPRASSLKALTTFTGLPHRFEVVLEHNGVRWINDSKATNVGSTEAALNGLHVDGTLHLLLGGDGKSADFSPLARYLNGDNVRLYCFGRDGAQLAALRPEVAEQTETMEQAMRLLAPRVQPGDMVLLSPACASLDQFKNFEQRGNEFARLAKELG

Structure (SMILES) | effect of salt on E. faecalis MurD enzyme activity [1] | activation of S. aureus Mur D enzyme by cations [3] | further results
N.O=CO [ammonium formate] | independent |  | dependence of E. coli enzyme activity on presence of salt [2]: dependent
[K+] [K^+, potassium] |  | activated | 
N [NH4^+, ammonium] |  | activated | 
O=S(=O)(O)O [SO4-ions] | inhibitor |  | 
C[S+](C)[O-] [DMSO, dimethylsulfoxide] |  |  | effect of DMSO on E. faecalis MurD [4]: not affected
